Test results taken from patent publication US9089509B2, “Method of treatment of age-related macular degeneration” (YEDA RESEARCH AND DEVELOPMENT CO., LTD., priority 2006, dated 2015).

Tests used:
[1] = tested on: retinal ganglion cells (RGCs); conditions: cited from earlier work
[2] = tested on: Tg-AD mice (APPK595N, M596L+PS1ΔE9); test: Morris water maze (MWM) spatial learning/memory in Cop-1-vaccinated Tg-AD mice; assay type: in vivo, mouse; conditions: acquisition and reversal tasks (FIGS. 7A-7B)
Procedure: (§1) Each mouse was subcutaneously injected five times with a total of 100 μg of high-molecular-weight (TV-5010 DS, from batch no. 486220205; Teva Pharmaceutical Industries, Petach Tikva, Israel) emulsified in 200 μl PBS, from experimental day 0 until day 24, twice during the first week and once a week thereafter.
Spatial learning/memory was assessed by performance on a hippocampus-dependent visuo-spatial learning task in the Morris water maze (MWM) and carried out as described (Lichtenwalner et al., 2001).
MWM behavior scores were analyzed using […]. Treatment group and trial block were used as sources of variation to evaluate the significance of differences between mean scores during acquisition trial blocks in the MWM.
Two weeks before the end of the experiment, all mice were tested in a Morris water maze (MWM) for cognitive activity, as reflected by their performance of a hippocampus-dependent spatial learning/memory task. […] Differences in cognitive performance were manifested in both the acquisition (FIG. 7A) and the reversal tasks (FIG. 7B).

[3] = tested on: Tg-AD mice (APPK595N, M596L+PS1ΔE9); test: Cop-1 vaccination of Tg-AD mice: neurogenesis in hippocampal dentate gyrus (BrdU, NeuN, DCX); assay type: in vivo, mouse
Procedure: For BrdU staining, sections were washed with PBS and incubated in 2N HCl at 37° C. for 30 min. Sections were blocked for 1 h with blocking solution [PBS containing 20% normal horse serum and 0.1% Triton X-100, or PBS containing mouse immunoglobulin blocking reagent obtained from Vector Laboratories (Burlingame, Calif.)].
For immunohistochemistry, tissue sections were treated with a permeabilization/blocking solution containing 10% FCS, 2% bovine serum albumin, 1% glycine, and 0.05% Triton X-100 (Sigma-Aldrich, St. Louis). Tissue sections were stained overnight at 4° C. with specified combinations of the following primary antibodies: rat anti-BrdU (1:200; Oxford Biotechnology, Kidlington, Oxfordshire, UK), goat anti-doublecortin (anti-DCX) (1:400; Santa Cruz Biotechnology, Santa Cruz, Calif.), and mouse anti-neuronal nuclear protein (anti-NeuN) (1:200; Chemicon). […] Expression of IGF-I was detected by goat anti-IGF-I Abs (1:20; R&D Systems). Expression of TNF-α was detected by goat anti-TNF-α Abs (1:100; R&D Systems). T cells were detected with anti-CD3 polyclonal Abs (rabbit, 1:100; DakoCytomation, CA). […]
For in-vivo experiments, the numbers of Aβ plaques and CD11b^+ microglia in the hippocampus were counted at 300-μm intervals in 6-8 coronal sections (30 μm) from each mouse. Neurogenesis in the dentate gyrus was evaluated by counting of pre-mature neurons (DCX^+), proliferating cells (BrdU^+), and newly formed mature neurons (BrdU^+/NeuN^+) in six coronal sections (370 μm apart) per mouse brain. To obtain an estimate of the total number of labeled cells per dentate gyrus, the total number of cells counted in the selected coronal sections from each brain was multiplied by the volume index (the ratio between the volume of the dentate gyrus and the total combined volume of the selected sections). […] Quantification of CD3^+, CD11b^+ and CD11c^+ cells were analyzed from 30-50 Aβ-plaques of each mouse tested in this study. […]

[4] = tested on: Tg-AD mice (APPK595N, M596L+PS1ΔE9); test: Cop-1 vaccination of Tg-AD mice: Aβ plaques, microglial phenotype and T cells in hippocampus (immunohistochemistry); assay type: in vivo, mouse
Procedure: For immunohistochemistry, tissue sections were treated with a permeabilization/blocking solution containing 10% FCS, 2% bovine serum albumin, 1% glycine, and 0.05% Triton X-100 (Sigma-Aldrich, St. Louis). Tissue sections were stained overnight at 4° C. with specified combinations of the following primary antibodies: rat anti-BrdU (1:200; Oxford Biotechnology, Kidlington, Oxfordshire, UK), goat anti-doublecortin (anti-DCX) (1:400; Santa Cruz Biotechnology, Santa Cruz, Calif.), and mouse anti-neuronal nuclear protein (anti-NeuN) (1:200; Chemicon). Secondary antibodies were FITC-conjugated donkey anti-goat, Cy-3-conjugated donkey anti-mouse, and Cy-3- or Cy-5-conjugated donkey anti-rat (1:200; Jackson ImmunoResearch, West Grove, Pa.). CD11b (MAC1; 1:50; BD—Pharmingen) or FITC-conjugated 113-4 was used for labeling of microglia. Anti-MHC-II Abs (rat, clone IBL-5/22; 1:50) was used to detect expression of cell-surface MHC-II proteins. To detect expression of CD11c hamster anti-CD11c (1:100; eBioscience, San Diego, Calif.) was used. Anti-Aβ (human amino-acid residues 1-17) (mouse, clone 6E10; Chemicon) was used to detect expression of human Aβ. Expression of IGF-I was detected by goat anti-IGF-I Abs (1:20; R&D Systems). Expression of TNF-α was detected by goat anti-TNF-α Abs (1:100; R&D Systems). T cells were detected with anti-CD3 polyclonal Abs (rabbit, 1:100; DakoCytomation, CA). Propidium iodide (1 μg/ml; Molecular Probes, Invitrogen, Carlsbad, Calif.), was used for nuclear staining.
Nineteen adult double-transgenic APPK595N, M596L+PS1ΔE9 mice of the B6C3-Tg (APPswe, PSEN1dE9) 85 Dbo/J strain (Borchelt et al., 1997) were purchased from The Jackson Laboratory (Bar Harbor, Me.) and were bred and maintained in the Animal Breeding Center of The Weizmann Institute of Science. All animals were handled according to the regulations formulated by the Weizmann Institute's Animal Care and Use Committee, and all experiments and procedures were approved by the Weizmann Institute's Animal Care and Use Committee.
as §1
For in-vivo experiments, the numbers of Aβ plaques and CD11b^+ microglia in the hippocampus were counted at 300-μm intervals in 6-8 coronal sections (30 μm) from each mouse. Neurogenesis in the dentate gyrus was evaluated by counting of pre-mature neurons (DCX^+), proliferating cells (BrdU^+), and newly formed mature neurons (BrdU^+/NeuN^+) in six coronal sections (370 μm apart) per mouse brain. To obtain an estimate of the total number of labeled cells per dentate gyrus, the total number of cells counted in the selected coronal sections from each brain was multiplied by the volume index (the ratio between the volume of the dentate gyrus and the total combined volume of the selected sections). Specificity of BrdU+/NeuN+ co-expression was assayed using the confocal microscope (LSM 510) in optical sections at 1-μm intervals. Quantification of CD3^+, CD11b^+ and CD11c^+ cells were analyzed from 30-50 Aβ-plaques of each mouse tested in this study. Cell counts, numbers of Aβ plaques, plaque areas, and intensity of NeuN staining per unit area in the dentate gyrus were evaluated automatically using Image-Pro Plus 4.5 software (Media Cybernetics, Carlsbad, Calif.).
We verified the presence of both transgenes in each mouse by PCR amplification of genomic DNA. Tg-AD mice aged approximately 8 months were then vaccinated subcutaneously with Cop-1 (n=6) twice during the first week and once a week thereafter. Age-matched untreated Tg-AD mice (n=7) and non-Tg littermates (n=6) served, respectively, as untreated-Tg and wild-type controls. Seven weeks after the first Cop-1 injection all the mice were euthanized and analyzed. […]

[5] = vaccinated Tg-AD mice (FIG. 2D)

glatiramer acetate [Cop-1]
outcome of weekly administration of adjuvant-free agent ([1]; model of chronically elevated intraocular pressure (Bakalash et al., 2005)): neuroprotection
RGC loss ([1]; rat model of chronically high intraocular pressure, vaccination): significantly reduces RGC loss
MWM performance vs non-Tg littermates [2]: did not differ significantly
MWM performance vs untreated-Tg-AD mice [2]: superior to that of the untreated-Tg-AD mice
newly formed mature neurons (BrdU+/NeuN+) in dentate gyrus ([3]; compared to non-Tg littermates (FIG. 6B)): similar
pre-mature neurons (DCX+ cells) in dentate gyri ([3]; relative to non-Tg littermates (FIG. 6C)): slightly but significantly more
proliferating cells (BrdU+) in dentate gyrus ([3]; vs untreated-Tg counterparts (FIG. 6A)): significantly more
Aβ plaques in brain cryosections stained for human Aβ ([4]; s.c. vaccination, seven weeks after first injection, vs untreated Tg-AD mice (FIG. 2A)): very few
MHC-II expression by microglia adjacent to residual Aβ plaques [4, 5]: most of the microglia adjacent to residual Aβ plaques expressed MHC-II
TNF-α expression by microglia adjacent to residual Aβ plaques [4, 5]: hardly any of them expressed TNF-α
IGF-I expression by MHC-II+ microglia ([4]; vaccinated Tg-AD mice (FIG. 2F)): found to express IGF-I
CD11b+ cells that became CD11b+/CD11c+ cells (associated with Aβ-plaque) ([4]; vaccinated Tg-AD mice, 25% in untreated Tg-AD mice (FIG. 3C)): 87%
NeuN+ staining in hippocampal CA1 and dentate gyrus ([4]; vaccinated Tg-AD mouse relative to non-Tg littermate (FIG. 2A)): almost normal
area occupied by the plaques (Aβ-immunoreactivity) ([4]; vs age-matched untreated Tg-AD mice (FIG. 2J)): significantly smaller
total number of Aβ-plaques (30-μm hippocampal slice) ([4]; vs untreated Tg-AD mice (FIG. 2I)): significantly fewer plaques
CD11b+ microglia in hippocampus ([4]; vs untreated Tg-AD mice (FIG. 2K)): significantly fewer
T cells (CD3+) associated with Aβ-plaque ([4]; vs untreated Tg-AD mice (FIG. 2L)): significantly more
number of CD11b+ cells associated with Aβ-plaque ([4]; vs untreated Tg-AD mice (FIG. 3B)): significantly decreased
